In the supplement of paper PMC4862054:

Tested on: HCC1599
Assay: normalised viability (% of control), CellTiter-Blue; higher = more viable cells (about 100 = DMSO control)
Conditions: 10 nM; incubation time: 72 h
Procedure, shortened: (§1)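 Plates were quality-checked by Z'-factor and normalised to vehicle (100) and a positive kill control (0). The underlying assay incubated breast cancer cell lines for 72 h on 384-well plates with compound, then added 2.5 µl CellTiter-Blue for 2 h at 37 °C and read at 560/590 nm. The value is normalised viability at a single listed concentration of the series.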

Compound | normalised viability
CC(C)C[C@@H](C(=O)N[C@H](C(=O)OC1CCCC1)c1ccccc1)[C@H](O)C(=O)NO [Tosedostat] | 96.5%
COc1cc2/c(=N/c3ccc(Br)cc3F)nc[nH]c2cc1OCC1CCN(C)CC1 [Vandetanib] | 88.7%
COCC[n+]1c2c(n(Cc3cnccn3)c1C)C(=O)c1ccccc1C2=O [YM155] | 62.8%

Same assay, conditions: 1000 nM; incubation time: 72 h

Compound | normalised viability
CC(C)C[C@@H](C(=O)N[C@H](C(=O)OC1CCCC1)c1ccccc1)[C@H](O)C(=O)NO [Tosedostat] | 81.6%
COc1cc2/c(=N/c3ccc(Br)cc3F)nc[nH]c2cc1OCC1CCN(C)CC1 [Vandetanib] | 107%
COCC[n+]1c2c(n(Cc3cnccn3)c1C)C(=O)c1ccccc1C2=O [YM155] | 3.16%

Same assay, conditions: 10000 nM; incubation time: 72 h

Compound | normalised viability
CC(C)C[C@@H](C(=O)N[C@H](C(=O)OC1CCCC1)c1ccccc1)[C@H](O)C(=O)NO [Tosedostat] | 106%
COc1cc2/c(=N/c3ccc(Br)cc3F)nc[nH]c2cc1OCC1CCN(C)CC1 [Vandetanib] | 58.5%
COCC[n+]1c2c(n(Cc3cnccn3)c1C)C(=O)c1ccccc1C2=O [YM155] | 2.97%

Tested on: CAL-148
Assay: as above
Conditions: 3 nM; incubation time: 72 h
Procedure, shortened: as §1

Compound | normalised viability
CC(C)C[C@@H](C(=O)N[C@H](C(=O)OC1CCCC1)c1ccccc1)[C@H](O)C(=O)NO [Tosedostat] | 100%
COc1cc2/c(=N/c3ccc(Br)cc3F)nc[nH]c2cc1OCC1CCN(C)CC1 [Vandetanib] | 96.2%
COCC[n+]1c2c(n(Cc3cnccn3)c1C)C(=O)c1ccccc1C2=O [YM155] | 98.3%

Same assay, conditions: 30 nM; incubation time: 72 h

Compound | normalised viability
CC(C)C[C@@H](C(=O)N[C@H](C(=O)OC1CCCC1)c1ccccc1)[C@H](O)C(=O)NO [Tosedostat] | 96.3%
COc1cc2/c(=N/c3ccc(Br)cc3F)nc[nH]c2cc1OCC1CCN(C)CC1 [Vandetanib] | 93.2%
COCC[n+]1c2c(n(Cc3cnccn3)c1C)C(=O)c1ccccc1C2=O [YM155] | 1.65%

Same assay, conditions: 100 nM; incubation time: 72 h

Compound | normalised viability
CC(C)C[C@@H](C(=O)N[C@H](C(=O)OC1CCCC1)c1ccccc1)[C@H](O)C(=O)NO [Tosedostat] | 81.2%
COc1cc2/c(=N/c3ccc(Br)cc3F)nc[nH]c2cc1OCC1CCN(C)CC1 [Vandetanib] | 92.8%
COCC[n+]1c2c(n(Cc3cnccn3)c1C)C(=O)c1ccccc1C2=O [YM155] | 1.83%

Tested on: HDQ-P1
Assay: as above
Conditions: 3 nM; incubation time: 72 h
Procedure, shortened: as §1

Compound | normalised viability
CC(C)C[C@@H](C(=O)N[C@H](C(=O)OC1CCCC1)c1ccccc1)[C@H](O)C(=O)NO [Tosedostat] | 116%
COc1cc2/c(=N/c3ccc(Br)cc3F)nc[nH]c2cc1OCC1CCN(C)CC1 [Vandetanib] | 76.8%
COCC[n+]1c2c(n(Cc3cnccn3)c1C)C(=O)c1ccccc1C2=O [YM155] | 80.4%

Same assay, conditions: 30 nM; incubation time: 72 h

Compound | normalised viability
CC(C)C[C@@H](C(=O)N[C@H](C(=O)OC1CCCC1)c1ccccc1)[C@H](O)C(=O)NO [Tosedostat] | 100%
COc1cc2/c(=N/c3ccc(Br)cc3F)nc[nH]c2cc1OCC1CCN(C)CC1 [Vandetanib] | 72.1%
COCC[n+]1c2c(n(Cc3cnccn3)c1C)C(=O)c1ccccc1C2=O [YM155] | 16.8%

Same assay, conditions: 100 nM; incubation time: 72 h

Compound | normalised viability
CC(C)C[C@@H](C(=O)N[C@H](C(=O)OC1CCCC1)c1ccccc1)[C@H](O)C(=O)NO [Tosedostat] | 111%
COc1cc2/c(=N/c3ccc(Br)cc3F)nc[nH]c2cc1OCC1CCN(C)CC1 [Vandetanib] | 59.3%
COCC[n+]1c2c(n(Cc3cnccn3)c1C)C(=O)c1ccccc1C2=O [YM155] | 0.96%

Tested on: SK-BR-3
Assay: as above
Conditions: 10 nM; incubation time: 72 h
Procedure, shortened: as §1

Compound | normalised viability
CC(C)C[C@@H](C(=O)N[C@H](C(=O)OC1CCCC1)c1ccccc1)[C@H](O)C(=O)NO [Tosedostat] | 96%
COc1cc2/c(=N/c3ccc(Br)cc3F)nc[nH]c2cc1OCC1CCN(C)CC1 [Vandetanib] | 100%
COCC[n+]1c2c(n(Cc3cnccn3)c1C)C(=O)c1ccccc1C2=O [YM155] | 44.3%

Same assay, conditions: 1000 nM; incubation time: 72 h

Compound | normalised viability
CC(C)C[C@@H](C(=O)N[C@H](C(=O)OC1CCCC1)c1ccccc1)[C@H](O)C(=O)NO [Tosedostat] | 85.7%
COc1cc2/c(=N/c3ccc(Br)cc3F)nc[nH]c2cc1OCC1CCN(C)CC1 [Vandetanib] | 96.4%
COCC[n+]1c2c(n(Cc3cnccn3)c1C)C(=O)c1ccccc1C2=O [YM155] | 0.33%

Same assay, conditions: 10000 nM; incubation time: 72 h

Compound | normalised viability
CC(C)C[C@@H](C(=O)N[C@H](C(=O)OC1CCCC1)c1ccccc1)[C@H](O)C(=O)NO [Tosedostat] | 63.4%
COc1cc2/c(=N/c3ccc(Br)cc3F)nc[nH]c2cc1OCC1CCN(C)CC1 [Vandetanib] | 14.3%
COCC[n+]1c2c(n(Cc3cnccn3)c1C)C(=O)c1ccccc1C2=O [YM155] | 0.6%

Tested on: DU-4475
Assay: as above
Conditions: 3 nM; incubation time: 72 h
Procedure, shortened: as §1

Compound | normalised viability
CC(C)C[C@@H](C(=O)N[C@H](C(=O)OC1CCCC1)c1ccccc1)[C@H](O)C(=O)NO [Tosedostat] | 95.7%
COc1cc2/c(=N/c3ccc(Br)cc3F)nc[nH]c2cc1OCC1CCN(C)CC1 [Vandetanib] | 108%
COCC[n+]1c2c(n(Cc3cnccn3)c1C)C(=O)c1ccccc1C2=O [YM155] | 124%

Same assay, conditions: 30 nM; incubation time: 72 h

Compound | normalised viability
CC(C)C[C@@H](C(=O)N[C@H](C(=O)OC1CCCC1)c1ccccc1)[C@H](O)C(=O)NO [Tosedostat] | 98.6%
COc1cc2/c(=N/c3ccc(Br)cc3F)nc[nH]c2cc1OCC1CCN(C)CC1 [Vandetanib] | 102%
COCC[n+]1c2c(n(Cc3cnccn3)c1C)C(=O)c1ccccc1C2=O [YM155] | 95.8%

Same assay, conditions: 100 nM; incubation time: 72 h

Compound | normalised viability
CC(C)C[C@@H](C(=O)N[C@H](C(=O)OC1CCCC1)c1ccccc1)[C@H](O)C(=O)NO [Tosedostat] | 68%
COc1cc2/c(=N/c3ccc(Br)cc3F)nc[nH]c2cc1OCC1CCN(C)CC1 [Vandetanib] | 106%
COCC[n+]1c2c(n(Cc3cnccn3)c1C)C(=O)c1ccccc1C2=O [YM155] | 57.8%

Tested on: CAL-85-1
Assay: as above
Conditions: 3 nM; incubation time: 72 h
Procedure, shortened: as §1

Compound | normalised viability
CC(C)C[C@@H](C(=O)N[C@H](C(=O)OC1CCCC1)c1ccccc1)[C@H](O)C(=O)NO [Tosedostat] | 104%
COc1cc2/c(=N/c3ccc(Br)cc3F)nc[nH]c2cc1OCC1CCN(C)CC1 [Vandetanib] | 105%
COCC[n+]1c2c(n(Cc3cnccn3)c1C)C(=O)c1ccccc1C2=O [YM155] | 90.3%

Same assay, conditions: 30 nM; incubation time: 72 h

Compound | normalised viability
CC(C)C[C@@H](C(=O)N[C@H](C(=O)OC1CCCC1)c1ccccc1)[C@H](O)C(=O)NO [Tosedostat] | 97.8%
COc1cc2/c(=N/c3ccc(Br)cc3F)nc[nH]c2cc1OCC1CCN(C)CC1 [Vandetanib] | 109%
COCC[n+]1c2c(n(Cc3cnccn3)c1C)C(=O)c1ccccc1C2=O [YM155] | 3.33%

Same assay, conditions: 100 nM; incubation time: 72 h

Compound | normalised viability
CC(C)C[C@@H](C(=O)N[C@H](C(=O)OC1CCCC1)c1ccccc1)[C@H](O)C(=O)NO [Tosedostat] | 90.8%
COc1cc2/c(=N/c3ccc(Br)cc3F)nc[nH]c2cc1OCC1CCN(C)CC1 [Vandetanib] | 101%
COCC[n+]1c2c(n(Cc3cnccn3)c1C)C(=O)c1ccccc1C2=O [YM155] | 1.96%

Tested on: HCC1937
Assay: as above
Conditions: 10 nM; incubation time: 72 h
Procedure, shortened: as §1

Compound | normalised viability
CC(C)C[C@@H](C(=O)N[C@H](C(=O)OC1CCCC1)c1ccccc1)[C@H](O)C(=O)NO [Tosedostat] | 83.6%
COc1cc2/c(=N/c3ccc(Br)cc3F)nc[nH]c2cc1OCC1CCN(C)CC1 [Vandetanib] | 29.7%
COCC[n+]1c2c(n(Cc3cnccn3)c1C)C(=O)c1ccccc1C2=O [YM155] | 25%

Same assay, conditions: 1000 nM; incubation time: 72 h

Compound | normalised viability
CC(C)C[C@@H](C(=O)N[C@H](C(=O)OC1CCCC1)c1ccccc1)[C@H](O)C(=O)NO [Tosedostat] | 36.8%
COc1cc2/c(=N/c3ccc(Br)cc3F)nc[nH]c2cc1OCC1CCN(C)CC1 [Vandetanib] | 105%
COCC[n+]1c2c(n(Cc3cnccn3)c1C)C(=O)c1ccccc1C2=O [YM155] | 0.8%

Same assay, conditions: 10000 nM; incubation time: 72 h

Compound | normalised viability
CC(C)C[C@@H](C(=O)N[C@H](C(=O)OC1CCCC1)c1ccccc1)[C@H](O)C(=O)NO [Tosedostat] | 44.5%
COc1cc2/c(=N/c3ccc(Br)cc3F)nc[nH]c2cc1OCC1CCN(C)CC1 [Vandetanib] | 59.7%
COCC[n+]1c2c(n(Cc3cnccn3)c1C)C(=O)c1ccccc1C2=O [YM155] | 2.31%

Tested on: BT-549
Assay: as above
Conditions: 10 nM; incubation time: 72 h
Procedure, shortened: as §1

Compound | normalised viability
CC(C)C[C@@H](C(=O)N[C@H](C(=O)OC1CCCC1)c1ccccc1)[C@H](O)C(=O)NO [Tosedostat] | 85%
COc1cc2/c(=N/c3ccc(Br)cc3F)nc[nH]c2cc1OCC1CCN(C)CC1 [Vandetanib] | 102%
COCC[n+]1c2c(n(Cc3cnccn3)c1C)C(=O)c1ccccc1C2=O [YM155] | 83%

Same assay, conditions: 1000 nM; incubation time: 72 h

Compound | normalised viability
CC(C)C[C@@H](C(=O)N[C@H](C(=O)OC1CCCC1)c1ccccc1)[C@H](O)C(=O)NO [Tosedostat] | 63%
COc1cc2/c(=N/c3ccc(Br)cc3F)nc[nH]c2cc1OCC1CCN(C)CC1 [Vandetanib] | 85.2%
COCC[n+]1c2c(n(Cc3cnccn3)c1C)C(=O)c1ccccc1C2=O [YM155] | 0.74%

Same assay, conditions: 10000 nM; incubation time: 72 h

Compound | normalised viability
CC(C)C[C@@H](C(=O)N[C@H](C(=O)OC1CCCC1)c1ccccc1)[C@H](O)C(=O)NO [Tosedostat] | 39.1%
COc1cc2/c(=N/c3ccc(Br)cc3F)nc[nH]c2cc1OCC1CCN(C)CC1 [Vandetanib] | 22.4%
COCC[n+]1c2c(n(Cc3cnccn3)c1C)C(=O)c1ccccc1C2=O [YM155] | -0.61%

Tested on: MFM-223
Assay: as above
Conditions: 10 nM; incubation time: 72 h
Procedure, shortened: as §1

Compound | normalised viability
CC(C)C[C@@H](C(=O)N[C@H](C(=O)OC1CCCC1)c1ccccc1)[C@H](O)C(=O)NO [Tosedostat] | 91.6%
COc1cc2/c(=N/c3ccc(Br)cc3F)nc[nH]c2cc1OCC1CCN(C)CC1 [Vandetanib] | 100%
COCC[n+]1c2c(n(Cc3cnccn3)c1C)C(=O)c1ccccc1C2=O [YM155] | 62.8%

Same assay, conditions: 1000 nM; incubation time: 72 h

Compound | normalised viability
CC(C)C[C@@H](C(=O)N[C@H](C(=O)OC1CCCC1)c1ccccc1)[C@H](O)C(=O)NO [Tosedostat] | 64.1%
COc1cc2/c(=N/c3ccc(Br)cc3F)nc[nH]c2cc1OCC1CCN(C)CC1 [Vandetanib] | 61.6%
COCC[n+]1c2c(n(Cc3cnccn3)c1C)C(=O)c1ccccc1C2=O [YM155] | 12.2%

Same assay, conditions: 10000 nM; incubation time: 72 h

Compound | normalised viability
CC(C)C[C@@H](C(=O)N[C@H](C(=O)OC1CCCC1)c1ccccc1)[C@H](O)C(=O)NO [Tosedostat] | 32%
COc1cc2/c(=N/c3ccc(Br)cc3F)nc[nH]c2cc1OCC1CCN(C)CC1 [Vandetanib] | 30.6%
COCC[n+]1c2c(n(Cc3cnccn3)c1C)C(=O)c1ccccc1C2=O [YM155] | 6.53%
